Laboratory results reported in US20120184016A1, “NOVEL PROTEIN AND GENE THAT CODES THEREFOR” (priority 2009, published 2012).

How the values were obtained:
[1] = test system: recombinant β-galactoside-α2,6-sialyltransferase N1C0; test: Sugar acceptor substrate specificity (sialic acid transfer to monosaccharides/disaccharides); assay type: biochemical, Photobacterium leiognathi strain JT-SHIZ-119; design: Relative activity: concentration or dose not given beside the values; conditions: for transfer of sialic acid to the sugar acceptor substrate (in words) / Transferred NeuAc: purified enzyme; for transfer of sialic acid to the sugar acceptor substrate (in words): among 11 monosaccharides and disaccharides; for Transferred NeuAc: substance used as sugar acceptor substrate; for Relative activity: sialyltransferase activity represented by 100 for lactose
Experimental: Sialyltransferase activity was measured by a method described in J. Biochem., 120, 104-110 (1996) (which is hereby incorporated by reference in its entirety). Specifically, the enzyme reaction was performed using a reaction solution (30 μL) containing CMP-NeuAc (70 nmol, containing about 20000 cpm CMP-NeuAc in which NeuAc was labeled with ^14C; NeuAc represents N-acetylneuraminic acid) as a sugar donor substrate, lactose (1.25 μmol) as a sugar acceptor substrate, NaCl added to give a concentration of 0.5 M, and the enzyme prepared as described above. The enzyme reaction was carried out at 25° C. for about 10 to 180 minutes. After completion of the reaction, 1.97 mL of 5 mM phosphate buffer (pH 6.8) was added to the reaction solution, which was then applied to a Dowex 1×8 (PO4^3− form, 0.2×2 cm, manufactured by Bio-Rad Laboratories, Inc.) column. The radioactivity contained in the reaction product contained in the eluate (0 to 2 mL) from this column, that is, sialyllactose, was measured to calculate the enzyme activity. One enzyme unit (1 U) is defined as the amount of enzyme required to transfer one micromole of sialic acid per minute.
Sialic acid transfer reaction was performed using the purified enzyme, JT-SHIZ-119-derived recombinant β-galactoside-α2,6-sialyltransferase SHIZ119-N1C0, prepared in Example 3 and using various monosaccharides/disaccharides as sugar acceptor substrates. The reaction was performed by the method described in J. Biochem., 120, 104-110 (1996).
The monosaccharides used as sugar acceptor substrates were the following eight types: methyl-α-D-galactopyranoside (Gal-α-OMe), methyl-β-D-galactopyranoside (Gal-β-OMe), methyl-α-D-glucopyranoside (Glc-α-OMe), methyl-β-D-glucopyranoside (Glc-β-OMe), methyl-α-D-mannopyranoside (Man-α-OMe), methyl-β-D-mannopyranoside (Man-(3-OMe), N-acetylgalactosamine (GalNAc), and N-acetylglucosamine (GlcNAc). The disaccharides used were the following three types: lactose (Gal-β1,4-Glc), N-acetyllactosamine (Gal-β1,4-GlcNAc), and Gal-β1,3-GalNAc.
Note that the relative activity for each acceptor substrate is based on the sialyltransferase activity represented by 100 for lactose.

[2] = test system: JT-SHIZ-119-derived recombinant β-galactoside-α2,6-sialyltransferase N1C0 (neuraminidase activity); test: Substrate specificity of neuraminidase activity with PA-sugar chains, HPLC; assay type: biochemical, Photobacterium leiognathi strain JT-SHIZ-119; conditions: 30° C. for 18 hours; FIGS. 3-5, 3-7, 3-8
Experimental: The substrate specificity of neuraminidase, that is, the linkage mode of sialic acid to a sugar chain that is cleaved by the neuraminidase can be determined by, but not limited to, a method using a pyridylaminated sugar chain. More specifically, the enzyme reaction by neuraminidase is performed using PA sugar chains in which sialic acid is linked by α2,3-linkage, α2,6-linkage, or α2,8-linkage (for example, pyridylaminated sugar chains such as PA-Sugar Chain 029, PA-Sugar Chain 023, and PA-Sugar Chain 034 available from Takara Bio Inc.). The reaction product is analyzed by high performance liquid chromatography, and the amount of sialic acid that was cleaved is calculated from the retention time and peak area of the reaction product.
To reveal the specificity of the neuraminidase activity of the JT-SHIZ-119-derived recombinant β-galactoside-α2,6-sialyltransferase N1C0, reactions using a PA-sugar chain shown in Table 4, to which sialic acid is linked via α2,3-, α2,6-, or α2,8-linkage (PA-Sugar Chain 029, PA-Sugar Chain 023, or PA-Sugar Chain 034, manufactured by Takara Bio Inc.) as a substrate were performed.
To a purified enzyme solution of the JT-SHIZ-119-derived recombinant β-galactoside-α2,6-sialyltransferase N1C0 (equivalent to 0.6 U as sialyltransferase activity), 1.5 μL of a 10 pmol/μL PA-sugar chain was added, followed by reaction at 30° C. for 18 hours. After completion of the reaction, the reaction solution was treated at 100° C. for 2 minutes to inactivate the enzyme, followed by HPLC to analyze the reaction product. In the case of using PA-Sugar Chain 023 as the substrate, the pyridylaminated sugar chain was eluted and analyzed under the same conditions as those in Example 1. In the case of using PA-Sugar Chain 029 or PA-Sugar Chain 034 as the substrate, the elution was performed using eluent A (100 mM acetate-triethylamine, pH 5.0) and eluent B (100 mM acetate-triethylamine containing 0.5% n-butanol, pH 5.0) with a linear gradient of 0 to 100% eluent B (0 to 35 min), 100% eluent B (35 to 50 min), and then a linear gradient of 100% to 30% eluent B (51 to 75 min). The analysis was performed under the conditions of Example 1. FIGS. 3-2 to 3-8 show the results.

| Compound | transfer of sialic acid to the sugar acceptor substrate (in words) [1] | Transferred NeuAc [1] [nmol/min] | Relative activity [1] [%] | HPLC peak after reaction of the PA-sugar chain with the purified enzyme solution [2] |
| --- | --- | --- | --- | --- |
| CC(=O)N[C@H]1C(O)O[C@H](CO)[C@H](O)[C@@H]1O[C@@H]1O[C@H](CO)[C@H](O)[C@H](O)[C@H]1O (stereo partly drawn) [Gal-β1,3-GalNAc] | efficiently transferred | 1.68 | 58 |  |
| OC[C@H]1O[C@@H](O[C@H]2[C@H](O)[C@@H](O)C(O)O[C@@H]2CO)[C@H](O)[C@@H](O)[C@H]1O (some centres unmarked) [Lactose, lactose] | efficiently transferred | 2.88 | 100 |  |
| CO[C@H]1O[C@H](CO)[C@H](O)[C@H](O)[C@H]1O [Methyl-α-D-galactopyranoside, methyl-α-D-galactopyranoside] |  | 0.04 | 1 |  |
| CO[C@H]1O[C@H](CO)[C@@H](O)[C@H](O)[C@H]1O [Methyl-α-D-glucopyranoside, methyl-α-D-glucopyranoside] |  | <0.01 |  |  |
| CO[C@H]1O[C@H](CO)[C@@H](O)[C@H](O)[C@@H]1O [Methyl-α-D-mannopyranoside, methyl-α-D-mannopyranoside] |  | <0.01 |  |  |
| CO[C@@H]1O[C@H](CO)[C@H](O)[C@H](O)[C@H]1O [Methyl-β-D-galactopyranoside, methyl-β-D-galactopyranoside] | efficiently transferred | 1.1 | 38 |  |
| CO[C@@H]1O[C@H](CO)[C@@H](O)[C@H](O)[C@H]1O [Methyl-β-D-glucopyranoside, methyl-β-D-glucopyranoside] |  | <0.01 |  |  |
| CO[C@@H]1O[C@H](CO)[C@@H](O)[C@H](O)[C@@H]1O [Methyl-β-D-mannopyranoside, methyl-β-D-mannopyranoside] |  | 0.04 | 1 |  |
| CC(=O)N[C@H]1C(O)O[C@H](CO)[C@H](O)[C@@H]1O (some centres unmarked) [N-Acetylgalactosamine, N-acetylgalactosamine] | efficiently transferred | 0.29 | 10 |  |
| CC(=O)N[C@H]1C(O)O[C@H](CO)[C@@H](O)[C@@H]1O (some centres unmarked) [N-Acetylglucosamine, N-acetylglucosamine] |  | <0.01 |  |  |
| CC(=O)N[C@H]1C(O)O[C@H](CO)[C@@H](O[C@@H]2O[C@H](CO)[C@H](O)[C@H](O)[C@H]2O)[C@@H]1O (some centres unmarked) [N-Acetyllactosamine, N-acetyllactosamine] | efficiently transferred | 2.96 | 103 |  |
| CC(=O)NC1C(O)CC(OC2C(O)C(CO)OC(OC(C(O)CO)C(O)C(O)CNc3ccccn3)C2O)(C(=O)O)OC1C(O)C(O)CO (centres unmarked) [PA-Sugar Chain 029, Neu5Acα2-3Galβ1-4Glc-PA] |  |  |  | corresponds to PA-Sugar Chain 029 |
| GD1b-hexasaccharide [PA-Sugar Chain 034] |  |  |  | corresponds to PA-Sugar Chain 034 |
| N-Acetyllactosamine type, disialylated biantennary [PA-Sugar Chain 023] |  |  |  | corresponds to PA-Sugar Chain 001 |
